# In patent US12594296B2, “Methods for treatment or prevention of damage resulting from radiation, trauma or shock” (priority 2012, dated 2026):
# Entries after “also recorded” stand apart in the source; their conditions may differ. Where two headings read alike, the source gives them in different places. Bridge positions count the residues as written; N and C are the ends. Square brackets hold non-standard residues; d marks the D form. Peptide text beside a SMILES is read from it. * marks the point of attachment. Ileψ(thiazoline)Cys = CC[C@H](C)[C@H](N)C1=N[C@H](C(=O)*)CS1; dOrn = NCCC[C@@H](N)C(=O)O
# What was measured:
# Clostridium perfringens = format: in vivo, chicks
# [1] = system: irradiated left buccal cheek pouch (oral mucositis); assay: Oral mucositis scheduling study (Example 3); format: in vivo, hamsters; conditions: 200 ppm thrice daily Day -1 to 14 or Day 10 to 36, relative to Day -7 to 36 or Day -1 to 36
# Procedure: In a scheduling study, an acute dose of irradiation of 40 Gy directed to the left buccal cheek pouch and the hamsters were treated t.i.d. with 200 μg/mL PAAG or vehicle control directly inserted into the pouch. Schedules included PAAG treatment Day—7 to 36, Day—1 to 36, Day—1 to 14, and Day 10-36. Mean % weight change and mucositis score were recorded. Oral mucositis scheduling study was performed as described above with PAAG (86 kDa and 30% functionalization) added to the indicated final concentrations. The mean mucositis scores for a vehicle control and 200 ppm PAAG administered thrice daily from Day—7 to 36, Day—1 to 36, Day—1 to 14, or Day 10 to 36 is shown in FIG. 7. […] dosed with 200 ppm PAAG administered thrice daily from Day—1 to 14 or from Day 10 to 36 have a reduced mean mucositis score relative to mice dosed with 200 ppm PAAG thrice daily from Day—7 to 36 or from Day—1 to 36.
# [2] = system: irradiated left buccal cheek pouch (oral mucositis); assay: Mucosal radiation dose ranging study, oral mucositis (Example 2); format: in vivo, Syrian Golden hamsters; conditions: 40 Gy to cheek pouch; 50, 100, 250 and 500 μg/mL t.i.d. into the pouch
# Procedure: In a dose ranging study, an acute dose of irradiation of 40 Gy directed to the left buccal cheek pouch of Syrian Golden hamsters and the hamsters were treated t.i.d. with 50, 100, 250 and 500 μg/mL PAAG or vehicle control directly inserted into the pouch. Mean % weight change and mucositis score were recorded. The mucosal radiation dose ranging study was performed as described above with PAAG (86 kDa and 30% functionalization) added to the indicated final concentrations. […] A comparison of the mean percent weight gain for […] dosed with vehicle control and four dosing concentrations of PAAG is shown in FIG. 4. […] The healing effect of PAAG is shown in FIG. 6, which depicts the comparison of the percentage of animals with a mucositis score of 3 or higher on a given day post irradiation for a vehicle control and three doses of PAAG.
# [3] = system: mice exposed to ionizing radiation; assay: Total body irradiation study: survival and body weight (Example 1); format: in vivo; conditions: for Percent Dead Per Group: 50 mg/kg p.o. q.d. + 200 ppm in drinking water Days 1-18
# Procedure: Male mice were exposed to an acute irradiation dose on Day 0 of 0, 12.5, or 13.0 Gy at a rate of 1 Gy/min with lead shielding to the left hind limb. Starting 24 hours after irradiation, the mice were untreated or treated with PAAG or vehicle control, given with 50 mg/kg via oral gavage daily and dosed ad libitum in the drinking water (200 ppm PAAG) from days 1 to 18. The treatment groups are summarized on TABLE 1.
# The total body irradiation study was performed as described above with control vehicle or PAAG (86 kDa and 30% functionalization) administered to the mice at the indicated final concentrations. […] As shown in the Kaplan-Meier Survival Plot in FIG. 1, there was no mortality in animals that were not irradiated. […] In fact, 88% of the treated animals survived while only 19% of the untreated animals survived. […] The comparative mortality data from these experiments is tabulated on TABLE 2.
# [4] = Irradiation biomarkers in plasma (pro-calcitonin, citrulline) (Example 10)
# [5] = system: mice exposed to ionizing radiation; assay: Survival after three doses of total body radiation (Example 11); format: in vivo, CB57BL/6 mice; conditions: for mortality, vehicle versus PAAG: 50 mg/kg once a day oral gavage
# Procedure: Male CB57BL/6 mice of the same weight and age were subjected to radiation doses of 12.5, 13.5 and 14.0 Gy. Animals were given the same dose of PAAG (50 mg/kg once a day) by oral gavage as in the previous study. Eighteen (18) animals were studied in each of […]: irradiated control and active PAAG at each dose. Mortality data is shown in FIG. 30 for three doses of total body radiation treated with vehicle or PAAG given via oral gavage daily.
# Acinetobacter baumaunii = assay: Caco2 attachment of Acinetobacter baumannii; format: cell-based; conditions: pretreatment 200 μg/mL 1 h; relative to untreated cells
# Procedure: Caco2 Attachment. The gut epithelium cell line (Caco2) were grown in Eagle's Minimal Essential Media (EMEM) supplemented with 10% (v/v) fetal bovine serum and 2 mm L-glutamine. Caco2 cells were seeded at 2.5×10^5 per well in 24 well plates and incubated at 37° C. and in atmosphere of 5% CO2 for 24 hours to confluency. The cells were then rinsed twice with D-PBS and replaced with (EMEM) without fetal bovine serum for another 24 hours. Cells were rinsed with D-PBS twice and replaced with media containing no fetal bovine serum. Pretreatment of the cells with PAAG 200 ug/ml (86 kDa, 30% functionalization; 37 kDa, 22% functionalization; and 27 kDa, 21% functionalization) dissolved in media without serum for one hour was performed and the cells were then rinsed twice with D-PBS to remove any non-adherent PAAG. After rinsing, the cells were inoculated with Acinetobacter baumaunii in growth phase at a multiplicity of infection (MOI) of 1:100 for one hour. Cells were then rinsed twice with D-PBS before being lysed using 0.5% Triton X-100 in D-PBS. Supernatants were extracted and serially diluted, plated and counted for bacterial attachment.
# (§1) Pretreatment and binding studies were performed as described above for Caco2 cells with Acinetobacter attachment and Burkholderia cepacia macrophage uptake studies, with the PAAG (86 kDa and 30% functionalization) added to the indicated final concentrations.
# [6] = system: bacteria in the mesenteric lymph nodes; assay: Intestinal bacterial translocation: bacterial count in mesenteric lymph nodes (Example 9); conditions: irradiated animals, 13 Gy; FIG. 16
# Burkholderia cepacia = Burkholderia cepacia macrophage uptake (U937); format: cell-based; conditions: pretreatment of U937 with 200 μg/mL; relative to untreated cells
# Procedure: Burkholderia cepacia macrophage uptake. The myeloid cell line (U937) were grown in RPMI 1640 supplemented with 10% (v/v) fetal bovine serum and 2 mm L-glutamine. Cells were seeded at 6×10^5 cells per well in 24 well plates in RPMI 1640 additionally supplemented with 0.1 ug PMA for 48 hours to activate U937 cells to be macrophage-like. Cell media was replaced with cell media without fetal bovine serum and PMA for at least 2 hours. Treatments consisted of either PAAG (200 ug/ml) treated on cells for one hour and being rinsed with D-PBS twice before inoculation or with PAAG treatment with no rinse. Upon completion of pretreatment with PAAG, cells were inoculated with Burkholderia cepacia in growth phase with an MOI of 1:10 for 45 min. After inoculation period media is supplemented with 50 ug/ml of gentamicin for another 45 min. Cells were then rinsed twice with D-PBS before being lysed using 0.5% Triton X-100 in D-PBS and serially diluted, plated and counted for bacterial uptake.
# as §1
# [7] = system: IL-8 production in U937 cells; assay: IL-8 production response in LPS-stimulated U937 cells (IL-8 ELISA); format: cell-based, human; conditions: 1 h pretreatment, rinsed, LPS 10 ng/ml 4 h; relative to control or lactoferrin pretreatment
# [8] = system: small intestine of irradiated C57BL/6 mice
# [9] = system: MRSA strain MW2 (ATCC BAA-1707); assay: Nasal epithelium/MRSA binding assay (RPMI-2650 cells); format: cell-based; conditions: pretreatment 200 or 500 ppm for 5 and 60 minutes; compared to PBS and media controls
# A431 epidermal cells = assay: Scratch healing of confluent A431 epidermal cell monolayer; format: cell-based; conditions: serum free DMEM; 24, 48, 72 or 96 hours
# Procedure: A431 epidermal cells were seeded into 4-well chamber slides in DMEM plus 10% FBS at a density to be confluent the next day (5×10^5/well (˜1.8 cm^2)). The following day, a scratch was made across the confluent monolayer using a sterile 10 μl tip. The medium was aspirated and the wells rinsed with DMEM to remove floating debris. Serum free DMEM was added to all wells, plus or minus PAAG (18 kD, 25% functionalization) or EGF as a positive control. Cells were treated for 24, 48, 72 or 96 hours. Cells were fixed with paraformaldehyde at the indicated times and stained with hematoxylin for better visualization. A representative scratch at time 0 is duplicated at the top of each column of treatments for comparison depicted in FIG. 13.
# [10] = 13 Gy, day 4, quantitative histology, FIG. 19
compound,measurement,setting,value
"poly (acetyl, arginyl) glucosamine [PAAG (22 kD, 36% functionalization)]",mortality relative to control,Clostridium perfringens; in vivo,reduced mortality with statistical significance; also recorded: reduced morality with statistical significance
same,treated animals died,Clostridium perfringens; in vivo,15%
"CC[C@H](C)[C@H](N)C1=N[C@H](C(=O)N[C@@H](CC(C)C)C(=O)N[C@H](CCC(=O)O)C(=O)N[C@H](C(=O)N[C@H]2CCCCNC(=O)[C@H](CC(N)=O)NC(=O)[C@@H](CC(=O)O)NC(=O)[C@H](Cc3cnc[nH]3)NC(=O)[C@@H](Cc3ccccc3)NC(=O)[C@H]([C@@H](C)CC)NC(=O)[C@@H](CCCN)NC2=O)[C@@H](C)CC)CS1 [Bacitracin, reference compound] ({Ileψ(thiazoline)Cys}-L[dE]IK[dOrn]I[dF]H[dD]N; lactam 4-C)",mortality relative to control,"Clostridium perfringens; ad libitum in water, PAAG at 100 ppm",reduced mortality with statistical significance; also recorded: reduced morality with statistical significance
"poly (acetyl, arginyl) glucosamine [PAAG]",mean mucositis score,[1],reduced
same,course of oral mucositis,[2],modulated the course of oral mucositis
same,survival difference between treated and untreated groups,"[3]; 12.5Gy of radiation, p=0.081",No statistical difference
same,Percent Dead Per Group,"[3]; 12.5 Gy, n=16",31.25%
same,No. of Death,"[3]; 12.5 Gy, Day 5, euthanized, n=16",1
same,No. of Death,"[3]; 12.5 Gy, Day 6, euthanized, n=16",1
same,No. of Death,"[3]; 12.5 Gy, Day 7, euthanized, n=16",3
same,Percent Dead Per Group,"[3]; 13.0 Gy, based on n=15",13.33^¶ Percent
same,No. of Death,"[3]; 13.0 Gy, Day 6, found dead, n=15",1
same,No. of Death,"[3]; 13.0 Gy, Day 18, euthanized, n=15",1
same,survival difference vehicle versus PAAG,"[3]; LD 80 dose (13.0 Gy), p<0.0001",very significant
same,treated animals survived,"[3]; LD 80 dose of radiation (13.0 Gy), untreated 19%",88%
same,mean percent weight change,"[3]; compared with untreated animals, FIG. 2",no significant effect
same,Percent Dead Per Group,"[3]; no radiation, n=5",0%
same,No. of Death,"[3]; no radiation, n=5",0
same,citrulline reduction versus untreated irradiated animals,[4]; 13 Gy,statistically less
same,circulating plasma levels of PCT relative to controls,"[4]; 13 Gy, oral gavage once a day",reduced
same,circulating amounts of citrulline relative to control,[4]; day 3 and 4 after lethal ionizing radiation,increased
same,"mortality, vehicle versus PAAG",[5]; 12.5 Gy,numerically significant
same,"mortality, vehicle versus PAAG",[5]; 13.5 Gy,not statistically different
same,"mortality, vehicle versus PAAG",[5]; 14.0 Gy,not statistically different
same,mortality,[5]; after LD70 ionizing radiation,reduced
same,adverse effects,[5]; any dose,No adverse effects
same,percentage of bacteria bound to Caco2 cells,Acinetobacter baumaunii,decreases
same,bacteria in the MLN (CFU/g) versus vehicle control group,[6],dramatically less
same,percentage of bacterial invasion by Burkholderia cepacia,Burkholderia cepacia,decreases
same,LPS activated IL-8 response,[7],reduced
same,crypt degeneration,"[8]; 13 Gy, day 2, 50 mg/kg PO",mild to moderate
same,"villi height, structure and epithelium","[8]; 13 Gy, day 2, 50 mg/kg PO",retained their normal height and structure
same,crypt regeneration,"[8]; 13 Gy, day 3, 50 mg/kg PO",mild to moderate
same,villi blunting,"[8]; 13 Gy, day 3, 50 mg/kg PO",minimally blunted
same,crypt loss,"[8]; 13 Gy, day 4, 50 mg/kg PO",moderate to marked
same,crypt regeneration,"[8]; 13 Gy, day 4, 50 mg/kg PO",moderate to marked
same,loss of villous epithelium,"[8]; 13 Gy, day 4, compared with vehicle group 3",not as severe as in group 3 animals
same,GI inflammation relative to control,[8]; [10],reduced
same,crypt loss relative to control,[8]; [10],reduced
same,epithelial loss relative to control,[8]; [10],reduced
same,crypt degeneration versus vehicle-treated mice,"[8]; 13 Gy, days 2-4",less severe
same,inflammation versus vehicle-treated mice,"[8]; 13 Gy, days 2-4",reduced
same,protection from the gastrointestinal effects of total body irradiation,"[8]; 13 Gy, days 2-4",partially protected
same,small intestine histology,"[8]; mouse, in vivo, po, 50 mg/kg",essentially normal
same,binding of MRSA to nasal epithelial cells,[9],decreases
EGF: EGF as a positive control [reference compound],healing of scratches,A431 epidermal cells,faster than control
"poly (acetyl, arginyl) glucosamine [PAAG (18 kD, 25% functionalization)]",healing of scratches,A431 epidermal cells,faster than control
